Results from ChEMBL document CHEMBL1275440, “In vitro activity of telavancin against resistant gram-positive bacteria” (2008).
In brackets after ≈: the same amount, converted by molar mass. Activity calls are given as the source filed them. No cut-off for these calls is given here.

What was measured:
Type in all cases: functional
Staphylococcus aureus [1] = experiment: Antibacterial activity against methicillin resistant Staphylococcus aureus MED 2028 osteomyelitis isolate assessed as bacterial count at 2 ug/ml after 8 hrs by time-kill assay
Staphylococcus aureus [2] = experiment: Antibacterial activity against methicillin resistant Staphylococcus aureus MED 1805 bloodstream isolate assessed as bacterial count at 4 ug/ml after 4 hrs by time-kill assay
Enterococcus faecalis [3] = experiment: Antibacterial activity against Enterococcus faecalis ATCC 51575 assessed as bacterial count at 4 ug/ml after 2 hrs by time-kill assay
Streptococcus pneumoniae [4] = experiment: Antibacterial activity against multidrug resistant Streptococcus pneumoniae MED 1090 assessed as bacterial count at 8 ug/ml after 4 hrs by time-kill assay
Streptococcus agalactiae [5] = experiment: Antibacterial activity against Streptococcus agalactiae MED 2038 assessed as bacterial count at […] after 8 hrs by time-kill assay
Streptococcus agalactiae [6] = experiment: Antibacterial activity against Streptococcus agalactiae group B clinical isolate by broth microdilution method
Streptococcus pneumoniae [7] = experiment: Antibacterial activity against multidrug resistant Streptococcus pneumoniae MED 1090 assessed as bacterial count at 0.06 ug/ml after 8 hrs by time-kill assay
Streptococcus pyogenes [8] = experiment: Antibacterial activity against Streptococcus pyogenes MED 2040 by broth microdilution method
Streptococcus pneumoniae [9] = experiment: Antibacterial activity against multidrug resistant Streptococcus pneumoniae MED 1090 assessed as bacterial count at 8 ug/ml after 8 hrs by time-kill assay
Staphylococcus aureus [10] = experiment: Antibacterial activity against methicillin resistant Staphylococcus aureus MED 1805 bloodstream isolate assessed as bacterial count at 2 ug/ml after 2 hrs by time-kill assay
Streptococcus pyogenes [11] = experiment: Antibacterial activity against Streptococcus pyogenes group A clinical isolate by broth microdilution method
Streptococcus agalactiae [12] = experiment: Antibacterial activity against Streptococcus agalactiae MED 2038 assessed as bacterial count at 8 ug/ml after 24 hrs by time-kill assay
Streptococcus pyogenes [13] = experiment: Antibacterial activity against Streptococcus pyogenes MED 2040 assessed as bacterial count at […] after 24 hrs by time-kill assay
Enterococcus faecalis [14] = experiment: Antibacterial activity against vancomycin resistant Enterococcus faecalis VanB clinical isolate by broth microdilution method
Staphylococcus aureus [15] = experiment: Antibacterial activity against methicillin resistant Staphylococcus aureus MED 1805 bloodstream isolate assessed as bacterial count at 16 ug/ml after 24 hrs by time-kill assay
Staphylococcus aureus [16] = experiment: Antibacterial activity against methicillin resistant Staphylococcus aureus MED 1805 bloodstream isolate assessed as bacterial count at 4 ug/ml after 24 hrs by time-kill assay
Streptococcus pyogenes [17] = experiment: Antibacterial activity against Streptococcus pyogenes MED 2040 assessed as bacterial count at 8 ug/ml after 8 hrs by time-kill assay
Enterococcus faecalis [18] = experiment: Antibacterial activity against Enterococcus faecalis ATCC 51575 assessed as bacterial count at 2 ug/ml after 4 hrs by time-kill assay
Streptococcus pneumoniae [19] = experiment: Antibacterial activity against multidrug resistant Streptococcus pneumoniae MED 1090 assessed as bacterial count at 2 ug/ml after 2 hrs by time-kill assay
Streptococcus pneumoniae [20] = experiment: Antibacterial activity against penicillin intermediate Streptococcus pneumoniae clinical isolate by broth microdilution method
Streptococcus pyogenes [21] = experiment: Antibacterial activity against Streptococcus pyogenes MED 2040 assessed as bacterial count at 2 ug/ml after 24 hrs by time-kill assay
Streptococcus pyogenes [22] = experiment: Antibacterial activity against Streptococcus pyogenes MED 2040 assessed as bacterial count at 8 ug/ml after 4 hrs by time-kill assay
Streptococcus pyogenes [23] = experiment: Antibacterial activity against Streptococcus pyogenes MED 2040 assessed as bacterial count at […] after 4 hrs by time-kill assay
Streptococcus pyogenes [24] = experiment: Antibacterial activity against Streptococcus pyogenes MED 2040 assessed as bacterial count at 0.5 ug/ml after 4 hrs by time-kill assay
Streptococcus pneumoniae [25] = experiment: Antibacterial activity against multidrug resistant Streptococcus pneumoniae MED 1090 assessed as bacterial count at 0.06 ug/ml after 24 hrs by time-kill assay
[26] = system: Staphylococcus epidermidis; experiment: Antibacterial activity against methicillin resistant Staphylococcus epidermidis ATCC 35984 assessed as bacterial count at 8 ug/ml after 4 hrs by time-kill assay
Staphylococcus aureus [27] = experiment: Antibacterial activity against methicillin resistant Staphylococcus aureus MED 2028 osteomyelitis isolate assessed as bacterial count at 16 ug/ml after 8 hrs by time-kill assay
[28] = system: Staphylococcus epidermidis; experiment: Antibacterial activity against methicillin resistant Staphylococcus epidermidis ATCC 35984 assessed as bacterial count at 8 ug/ml after 24 hrs by time-kill assay
Streptococcus pyogenes [29] = experiment: Antibacterial activity against Streptococcus pyogenes MED 2040 assessed as bacterial count at 2 ug/ml after 4 hrs by time-kill assay
Enterococcus faecalis [30] = experiment: Antibacterial activity against Enterococcus faecalis ATCC 51575 assessed as bacterial count at 2 ug/ml after 2 hrs by time-kill assay
Streptococcus agalactiae [31] = experiment: Antibacterial activity against Streptococcus agalactiae MED 2038 by broth microdilution method
Streptococcus pneumoniae [32] = experiment: Antibacterial activity against multidrug resistant Streptococcus pneumoniae MED 1090 assessed as bacterial count at 2 ug/ml after 24 hrs by time-kill assay
Streptococcus agalactiae [33] = experiment: Antibacterial activity against Streptococcus agalactiae MED 2038 assessed as bacterial count at 8 ug/ml after 2 hrs by time-kill assay
[34] = system: Staphylococcus saprophyticus; experiment: Antibacterial activity against methicillin resistant coagulase-negative Staphylococcus saprophyticus clinical isolate by broth microdilution method
Streptococcus agalactiae [35] = experiment: Antibacterial activity against Streptococcus agalactiae MED 2038 assessed as bacterial count at […] after 24 hrs by time-kill assay
Streptococcus agalactiae [36] = experiment: Antibacterial activity against Streptococcus agalactiae MED 2038 assessed as bacterial count at 2 ug/ml after 24 hrs by time-kill assay
Streptococcus pneumoniae [37] = experiment: Antibacterial activity against penicillin resistant Streptococcus pneumoniae clinical isolate by broth microdilution method
Streptococcus viridans = experiment: Antibacterial activity against Streptococcus viridans clinical isolate by broth microdilution method
Streptococcus pneumoniae [38] = experiment: Antibacterial activity against multidrug resistant Streptococcus pneumoniae MED 1090 assessed as bacterial count at […] after 24 hrs by time-kill assay
Staphylococcus aureus [39] = experiment: Antibacterial activity against methicillin resistant Staphylococcus aureus MED 1805 bloodstream isolate assessed as bacterial count at 4 ug/ml after 8 hrs by time-kill assay
Staphylococcus aureus [40] = experiment: Antibacterial activity against methicillin resistant Staphylococcus aureus MED 1805 bloodstream isolate assessed as bacterial count at 1 ug/ml after 24 hrs by time-kill assay
[41] = system: Staphylococcus epidermidis; experiment: Antibacterial activity against methicillin resistant Staphylococcus epidermidis ATCC 35984 assessed as bacterial count at 16 ug/ml after 2 hrs by time-kill assay
Staphylococcus aureus [42] = experiment: Antibacterial activity against methicillin resistant Staphylococcus aureus MED 2028 osteomyelitis isolate assessed as bacterial count at 1 ug/ml after 8 hrs by time-kill assay
[43] = system: Streptococcus constellatus; experiment: Antibacterial activity against Streptococcus constellatus clinical isolate by broth microdilution method

SMILES: CCCCCCCCCCNCCN[C@@]1(C)C[C@H](O[C@H]2[C@H](Oc3c4cc5cc3Oc3ccc(cc3Cl)[C@@H](O)[C@@H](NC(=O)[C@@H](CC(C)C)NC)C(=O)N[C@@H](CC(N)=O)C(=O)N[C@H]5C(=O)N[C@H]3C(=O)N[C@H](C(=O)N[C@H](C(=O)O)c5cc(O)c(CNCP(=O)(O)O)c(O)c5-c5cc3ccc5O)[C@H](O)c3ccc(c(Cl)c3)O4)O[C@H](CO)[C@@H](O)[C@@H]2O)O[C@@H](C)[C@H]1O [TELAVANCIN]
- log10CFU/ml (Staphylococcus aureus [1]): 3.1
- log10CFU/ml (Staphylococcus aureus [2]): 1.8
- log10CFU/ml (Enterococcus faecalis [3]): 0.5
- log10CFU/ml (Streptococcus pneumoniae [4]): 1.7
- log10CFU/ml (Streptococcus agalactiae [5]): 1.6
- MIC50 (Streptococcus agalactiae [6]): 0.06 µg/mL (≈ 0.0342 µM)
- MIC90 (Streptococcus agalactiae [6]): 0.06 µg/mL (≈ 0.0342 µM)
- log10CFU/ml (Streptococcus pneumoniae [7]): 3.4
- MIC (Streptococcus pyogenes [8]): 0.06 µg/mL (≈ 0.0342 µM)
- log10CFU/ml (Streptococcus pneumoniae [9]): 2.6
- log10CFU/ml (Staphylococcus aureus [10]): 1
- MIC50 (Streptococcus pyogenes [11]): 0.03 µg/mL (≈ 0.0171 µM)
- MIC90 (Streptococcus pyogenes [11]): 0.06 µg/mL (≈ 0.0342 µM)
- log10CFU/ml (Streptococcus agalactiae [12]): 3.7
- log10CFU/ml (Streptococcus pyogenes [13]): 2.2
- MIC (Enterococcus faecalis [14]): 0.25 µg/mL (≈ 0.142 µM)
- log10CFU/ml (Staphylococcus aureus [15]): 3.3
- log10CFU/ml (Staphylococcus aureus [16]): 3.3
- log10CFU/ml (Streptococcus pyogenes [17]): 2.7
- log10CFU/ml (Enterococcus faecalis [18]): 0.5
- log10CFU/ml (Streptococcus pneumoniae [19]): 1.8
- MIC50 (Streptococcus pneumoniae [20]): 0.015 µg/mL (≈ 0.00854 µM)
- MIC90 (Streptococcus pneumoniae [20]): 0.06 µg/mL (≈ 0.0342 µM)
- log10CFU/ml (Streptococcus pyogenes [21]): 3.1
- log10CFU/ml (Streptococcus pyogenes [22]): 1.2
- log10CFU/ml (Streptococcus pyogenes [23]): 0.4
- log10CFU/ml (Streptococcus pyogenes [24]): 1.6
- log10CFU/ml (Streptococcus pneumoniae [25]): 3.4
- log10CFU/ml [26]: 2.7
- log10CFU/ml (Staphylococcus aureus [27]): 2.3
- log10CFU/ml [28]: 3.3
- log10CFU/ml (Streptococcus pyogenes [29]): 2.7
- log10CFU/ml (Enterococcus faecalis [30]): 0.5
- MIC (Streptococcus agalactiae [31]): 0.06 µg/mL (≈ 0.0342 µM)
- log10CFU/ml (Streptococcus pneumoniae [32]): 3.4
- log10CFU/ml (Streptococcus agalactiae [33]): 1.1
- MIC50 [34]: 0.5 µg/mL (≈ 0.285 µM)
- MIC90 [34]: 1 µg/mL (≈ 0.57 µM)
- log10CFU/ml (Streptococcus agalactiae [35]): 0.6
- log10CFU/ml (Streptococcus agalactiae [36]): 2.7
- MIC50 (Streptococcus pneumoniae [37]): 0.015 µg/mL (≈ 0.00854 µM)
- MIC90 (Streptococcus pneumoniae [37]): 0.03 µg/mL (≈ 0.0171 µM)
- MIC (Streptococcus viridans): 0.015 µg/mL (≈ 0.00854 µM)
- MIC50 (Streptococcus viridans): inactive
- MIC90 (Streptococcus viridans): inactive
- log10CFU/ml (Streptococcus pneumoniae [38]): 3.4
- log10CFU/ml (Staphylococcus aureus [39]): 3
- log10CFU/ml (Staphylococcus aureus [40]): 2.7
- log10CFU/ml [41]: 0.5
- log10CFU/ml (Staphylococcus aureus [42]): 3.4
- MIC [43]: 0.015 µg/mL (≈ 0.00854 µM)
- MIC50 [43]: inactive
- MIC90 [43]: inactive
